One test has as its target lysine gingipain (Kgp) (Porphyromonas gingivalis (strain ATCC 33277 / DSM 20709 / CIP 103683 / JCM 12257 / NCTC 11834 / 2561), UniProt B2RLK2). As to the kind of experiment: Lysine gingipain (Kgp) fluorogenic inhibition assay. The test is classed as biochemical. The method, then:
The capacities of compounds of the present invention to inhibit the activity of lysine gingipain were measured in a fluorogenic assay similar to those described in Barret Biochemical Journal. 1980, 187(3), 909. The specific assay conditions were as follows. Buffer: pH=7.5, 100 mM Tris-HCl, 75 mM NaCl, 2.5 mM CaCl2, 10 mM cysteine, 1% DMSO after all additions. Protein: 0.1 nM Kgp, isolated from culture of Porphyromonas gingivalis, as described in Pike et al. J. Biol. Chem. 1994, 269(1), 406, and Potempa and Nguyen. Current Protocols in Protein Scienc. 2007, 21.20.1-21.20.27. Fluorogenic substrate: 10 uM Z-His-Glu-Lys-MCA. Time=90 minutes. Temperature=37° C. Each compound: 10 concentrations, starting at either 100 uM or 100 nM, with lower concentrations generated by serial 3-fold dilutions. By testing a range of concentrations for each compound, the concentration required to inhibit the activity of lysine gingipain by 50% (the “IC50”) was determined. Under the described assay conditions, signal-to-noise was excellent, and Z factor was greater than 0.6.
(§1) The inhibitory of activity of compounds described herein was tested against Kgp, RgpB, and trypsin.

The target in another test is RgpB (Porphyromonas gingivalis (strain ATCC BAA-308 / W83), UniProt P95493). The test is described as follows: RgpB inhibition. The test is classed as biochemical. Here is the method: as §1
The subject of a further test is SHSY5Y cells. The test is described as follows: P. gingivalis-induced toxicity in SHSY5Y cells in vitro. The test is classed as cell-based. To be noted: compared to the antibiotic moxifloxacin.
A further test has as its target Kgp (Porphyromonas gingivalis (strain ATCC 33277 / DSM 20709 / CIP 103683 / JCM 12257 / NCTC 11834 / 2561), UniProt B2RLK2). The conditions noted are these: cited from earlier work.
The target in test [1] is T1, trypsin (Homo sapiens (Human), UniProt P07477). The conditions noted are these: cited from earlier work.
Test [2] addresses T1, trypsin. The test is described as follows: Trypsin inhibition. The test is classed as biochemical. Here is the method: as §1
The subject of test [3] is differentiated SHSY-5Y cells. The test is described as follows: Gingipain-induced death of differentiated SH-SY5Y cells. The conditions noted are these: 100 nM Kgp and/or RgpB for 24 hours. The test is classed as cell-based. Here is the method:
SH-SY5Y neuroblastoma cells were cultured and differentiated in the presence of 5 uM retinoic acid based on established methods [Saberi S., et al. Cell Mol Neurobiol 2013. 33: 747-751]. Differentiation into neuronal cells was verified by observation of neurite outgrowth. The differentiated cells were exposed to 100 nM Kgp and/or RgpB for 24 hours, in the presence or absence of Kgp inhibitors. Results were recorded using a digital microscope camera (FIG. 1C, FIG. 2C). Gingipains are toxic to cells while COR compounds prevent the cytotoxicity.

The next test relates to abeta 42. The test is described as follows: Brain abeta 42 ELISA in mice orally infected with P. gingivalis. The test is classed as in vivo, Balb/cJ mice. The conditions noted are these: subcutaneously three times per day on days 21-42. The text has this: Female Balb/cJ mice were obtained from Taconic and allowed to acclimate. 43-44 week old mice were challenged orally with 10^9 CFU W83 P. gingivalis or a P. gingivalis strain lacking expression of Kgp every other day for 42 days. Compound 2 or vehicle (2% DMSO) was given subcutaneously three times per day on days 21-42. On day 42 mice were sacrificed and the brain removed and frozen. A sample including hippocampal tissue was lysed in RIPA buffer with protease inhibitors and analyzed for Abeta42 expression with the Amyloid beta 42 ELISA Kit, Mouse (Life Technologies).

“Also recorded” adds a separate entry of the source. Where two headings read alike, the source gives them in different places. A value given as a limit tells only on which side of the number the result lay.

Turning to `NCCCC[C@H](NC(=O)C1CCCC1)C(=O)COc1c(F)c(F)cc(F)c1F` [Compound 43, N-[(1S)-5-amino-1-[2-(2,3,5,6-tetrafluorophenoxy)acetyl]pentyl]cyclo-pentanecarboxamide], the IC50 on lysine gingipain (Kgp) (0.1 nM Kgp, 10 uM Z-His-Glu-Lys-MCA, 90 minutes, 37° C., pH 7.5, read-out: Kgp IC50 average) is ≤ 1 nM; against RgpB, > 475 nM. Besides, at lysine gingipain (Kgp) (in words), the “lysine gingipain IC50 value” is listed as “sub-nanomolar”. In addition, the “protection of SHSY5Y cells from P. gingivalis-induced toxicity” value with SHSY5Y cells is “protects”.
In the case of `NCCC[C@H](NC(=O)C1CCCN(C(=O)CCc2ccccc2)C1)C(=O)c1nc2ccccc2s1` (mixture of isomers) [Compound A71561, 1-(3-phenylpropionyl)piperidine-3(R,S)-carboxylic acid [4-amino-1(S)-(benzothiazole-2-carbonyl)butyl]amide], the Ki on Kgp is 0.9 nM; at trypsin [1], 30 nM.
As for `NCCCC[C@H](NC(=O)C1CCCCC1)C(=O)c1nc2ccccc2s1` [Compound 2, N-[(1S)-5-amino-1-(1,3-benzothiazole-2-carbonyl)pentyl]cyclohexanecarboxamide], the IC50 on lysine gingipain (Kgp) (read-out: Kgp IC50) is 1 to 10 nM; against trypsin [2] it was 5000 nM. Further, the “prevention of gingipain-induced death of differentiated SHSY-5Y cells” value in test [3] is recorded as “prevents; also recorded: more effective; also recorded: effective at preventing cell death”. In the test with abeta 42, the “brain levels of abeta 42 (ELISA)” value is reported as “resolved; also recorded: increase in abeta42 that was not apparently”.

The values are drawn from patent US9988375B2, “Inhibitors of lysine gingipain” (priority 2014, dated 2018).
